Laboratory results published in USRE38352E1, “Polymerase chain reaction assays for monitoring antiviral therapy and making therapeutic decisions in the treatment of acquired immunodeficiency syndrome” (priority 1992, dated 2003).
Read-outs that look alike come from different tables or passages of the source.

Key:
[1] = test system: HIV with codon 215 mutation; settings: mutation at codon 215; cited from earlier work
plasma HIV RNA = settings: patients receiving AZT; ultracentrifugation, 40 cycles (Ottman et al.); cited from earlier work
[2] = test system: HIV virus stock from patient PBMC; assay: AZT sensitivity assay (inhibition of P24 production in donor PBMC); assay type: cell-based; settings: Human immunodeficiency virus 1, PBMC
Procedure: Patient PBMC were cocultured with mitogen-stimulated PBMC from healthy HIV-seronegative donors. Supernatants from these cultures were collected and frozen when the HIV P24 antigen concentration exceeded 10,000 pg/ml. 30-100 TCID50 (50% tissue culture infectious dose) of virus stock was used to infect one million donor PBMC pretreated with different concentrations of AZT (0.0 μM, 0.005 μM, 0.05 μM, 0.5 μM, 5.0 μM). After 7 days, P24 antigen was measured in the cell free supernatant from the cultures with and without zidovudine. The concentration of AZT required to inhibit P24 production by 90% (IC90) as compared to the drug free cultures was determined by nonlinear regression analysis (Chou et al., 1984, Adv. Enzyme Regulation 22:27-55).
All comparisons between the patients with mutant and wild type strains were performed using the student's t-test. The calculations on the IC90s determined by the zidovudine sensitive assay were performed using the logl10 transformed IC90 (i.e., geometric means were used rather than arithmetic means).

## Cc1cn([C@H]2C[C@H](N=[N+]=[N-])[C@@H](CO)O2)c(=O)[nH]c1=O [AZT, zidovudine]
[1]
  decrease in zidovudine susceptibility: 16 fold
Plasma HIV RNA
  patients with detectable plasma HIV RNA signal: 24 of 25
[2]; 168 h, isolates from AZT-naive patients, 7 days, read-out: IC90 (inhibition of P24 production by 90%), range
  IC90: 2 to 38 nM
[2]; nine patients with a mutation at codon 215, read-out: IC90 range
  IC90: 30 to 8000 nM
[2]; read-out: IC90 range, eight patients with wild type form at codon 215
  IC90: 20 to 280 nM
[2]; read-out: geometric mean IC90, eight patients with wild type form at codon 215, post-treatment PBMC
  IC90: 40 nM
[2]; read-out: geometric mean IC90, nine patients with a mutation at codon 215
  IC90: 410 nM
